The results in this text go back to the supplement of paper PMC11061612.

Structures are written as SMILES.

Holding throughout (test): combination Emax (second highest fraction inhibited in the dose matrix, 72 h); higher = more inhibition; extreme values may be limits of the assay
The subject of test [1] is EMC-BAC-2 (Non-Small Cell Lung Carcinoma). An outline of the steps: (§1)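 Cell lines in DMEM/F12 or RPMI with 10% FBS were plated in 1536-well plates, held 24 hours at 37°C, 5% CO2, then given two-drug dose matrices for 72 hours (DMSO typically 0.2%). Viability was read by CellTiter-Glo 2.0 luminescence and scaled as inhibition from 0 (vehicle wells) to 1 (blank wells). Combination Emax is the second-highest inhibition in the matrix; Bliss excess is observed combination effect minus expected EA + EB − EA·EB, EA and EB being single-agent effects.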

Another test relates to EW-3 (Ewing's Sarcoma). The procedure, abridged: as §1
A further test has as its system GI-1 (Glioblastoma). The procedure, abridged:
as §1

In test [2] the test system is H-EMC-SS (Chondrosarcoma). The procedure, abridged:
as §1

For test [3], the system named is KP-2 (Pancreatic Carcinoma). An outline of the steps:
as §1

For test [4], the system named is KU-19-19 (Bladder Carcinoma). The procedure, abridged: as §1
Test [5] deals with KYSE-150 (Esophageal Squamous Cell Carcinoma). An outline of the steps: as §1
Test [6] deals with KYSE-50 (Esophageal Squamous Cell Carcinoma). The procedure, abridged:
as §1

In test [7] the test system is LOU-NH91 (Squamous Cell Lung Carcinoma). An outline of the steps:
as §1

Test [8] relates to MFE-319 (Endometrial Carcinoma). The procedure, abridged: as §1
The next test relates to NB7 (Neuroblastoma). The procedure, abridged:
as §1

Test [9] deals with NCI-H1573 (Lung Adenocarcinoma). An outline of the steps:
as §1

In test [10] the test system is NCI-H513 (Other Solid Carcinomas). An outline of the steps:
as §1

Test [11] has as its system NCI-N87 (Gastric Carcinoma). The procedure, abridged:
as §1

The subject of the next test is NH-12 (Neuroblastoma). An outline of the steps:
as §1

Test [12] has as its system OCUB-M (Breast Carcinoma). The procedure, abridged: as §1
For test [13], the system named is PF-382 (T-Lymphoblastic Leukemia). The procedure, abridged:
as §1

Another test has as its system RPMI-7951 (Melanoma). An outline of the steps: as §1
For test [14], the system named is SNU-C1 (Colorectal Carcinoma). The procedure, abridged: as §1
For test [15], the system named is TGBC11TKB (Gastric Carcinoma). The procedure, abridged:
as §1

`CC1(C)CCC(CN2CCN(c3ccc(C(=O)NS(=O)(=O)c4ccc(NCC5CCOCC5)c([N+](=O)[O-])c4)c(Oc4cnc5[nH]ccc5c4)c3)CC2)=C(c2ccc(Cl)cc2)C1` [Venetoclax] + CN(C)CCCOc1ccc(-c2ccc3ncc4c(c3c2)n(C2CCOCC2)c(=O)n4C)cn1 [AZD0156] (first compound max 1 µM, 7x7, partner max 1 µM): the “combination Emax” value was determined as 0.25 in [1]; 0.799 in the test with EW-3 (Ewing's Sarcoma); 0.234 with GI-1 (Glioblastoma); 0.206 in [2]; 0.19 in test [3]; 0.135 in test [4]. The “combination Emax” value in [5] stood at 0.237; in test [6] it was 0.164; in test [7], 0.227; in test [8], 0.243; in the test with NB7 (Neuroblastoma) it was 0.18; in [9] it was 0.168. Further, the “combination Emax” value in [10] stood at 0.21; in test [11], 0.461; with NH-12 (Neuroblastoma), 0.483; in test [12], 0.749; in test [13], 0.256; in the test on RPMI-7951 (Melanoma), 0.304. Moreover, the “combination Emax” value in [14] is 0.163; in [15], 0.235.
In the case of `COc1cccc(OCCCN)c1-c1cc(Nc2cnc(C#N)cn2)n[nH]1` [Prexasertib] + CN(C)CCCOc1ccc(-c2ccc3ncc4c(c3c2)n(C2CCOCC2)c(=O)n4C)cn1 [AZD0156] (first compound max 1 µM, 7x7, partner max 1 µM), the “combination Emax” value in [1] was 0.591; with EW-3 (Ewing's Sarcoma), 0.683; in the test with GI-1 (Glioblastoma), 0.966; in test [2] it was 0.493; in [3] it was 0.441; in [4], 0.865. For the same compound, the “combination Emax” value came to 0.365 in test [5]; 0.844 in test [6]; 0.445 in test [7]; 0.815 in test [8]; 0.858 in the test with NB7 (Neuroblastoma); 0.652 in test [9]. Moreover, the “combination Emax” value was determined as 0.343 in test [10]; 0.706 in test [11]; 0.918 in the test on NH-12 (Neuroblastoma); 0.574 in [12]; 0.9 in test [13]; 0.953 with RPMI-7951 (Melanoma). For the same compound, the results for the “combination Emax” value in test [14] and in test [15] were 0.751 and 0.963, respectively.
Turning to `CC1(C)CCC(CN2CCN(c3ccc(C(=O)NS(=O)(=O)c4ccc(NCC5CCOCC5)c([N+](=O)[O-])c4)c(Oc4cnc5[nH]ccc5c4)c3)CC2)=C(c2ccc(Cl)cc2)C1` [Venetoclax] + C1CN(CCC1(C(=O)N[C@@H](CCO)C2=CC=C(C=C2)Cl)N)C3=NC=NC4=C3C=CN4 [Capivasertib] (first compound max 1 µM, 7x7, partner max 3 µM), the “combination Emax” value worked out at 0.35 in test [1]; 0.683 in the test with EW-3 (Ewing's Sarcoma); 0.412 with GI-1 (Glioblastoma); 0.413 in test [2]; 0.0692 in test [3]; 0.2 in test [4]. In addition, the “combination Emax” value in test [5] was determined as 0.405; in [6], 0.17; in test [7] it was 0.36; in test [8] it was 0.321; in the test with NB7 (Neuroblastoma) it was 0.056; in test [9], 0.194. Moreover, the “combination Emax” value in test [10] is 0.117; in [11], 0.521; with NH-12 (Neuroblastoma), 0.612; in [12], 0.942; in test [13] it was 0.518; in the test with RPMI-7951 (Melanoma), 0.472. For the same compound, the “combination Emax” value amounted to 0.428 in [14] and 0.153 in test [15].
Consider `Cc1c2c(nn1C)CSCc1cc(n(C)n1)CSc1cc(c3ccccc3c1)OCCCc1c(C(=O)O)n(C)c3c-2c(Cl)ccc13` [AZD5991] + Cc1cc2ncnn2cc1Nc1ncc2c(n1)n(C1CCOCC1)c(=O)n2C [AZD7648] (first compound max 1 µM, 7x7, partner max 10 µM), for which the “combination Emax” value in test [1] turned out to be 0.678; in the test on EW-3 (Ewing's Sarcoma), 0.727; with GI-1 (Glioblastoma), 0.672; in test [2], 0.479; in test [3] it was 0.2; in test [4], 0.26. The “combination Emax” value in [5] worked out at 0.57; in test [6] it was 0.284; in test [7], 0.278; in test [8], 0.471; in the test with NB7 (Neuroblastoma) it was 0.546; in test [9], 0.673. Moreover, the “combination Emax” value in test [10] is 0.324; in test [11], 0.492; in the test on NH-12 (Neuroblastoma), 0.226; in test [12], 0.983; in [13] it was 0.353; in the test with RPMI-7951 (Melanoma) it was 0.91. The “combination Emax” value in test [14] turned out to be 0.412; in test [15] it was 0.359.
For `CC1(C)CCC(CN2CCN(c3ccc(C(=O)NS(=O)(=O)c4ccc(NCC5CCOCC5)c([N+](=O)[O-])c4)c(Oc4cnc5[nH]ccc5c4)c3)CC2)=C(c2ccc(Cl)cc2)C1` [Venetoclax] + CCN(CCO)CCCOc1ccc2c(Nc3cc(CC(=O)Nc4cccc(F)c4)[nH]n3)ncnc2c1 [AZD2811] (first compound max 1 µM, 7x7, partner max 1 µM), the “combination Emax” value in test [1] is 0.343; with EW-3 (Ewing's Sarcoma), 0.779; in the test with GI-1 (Glioblastoma) it was 0.389; in test [2], 0.164; in test [3], 0.228; in test [4] it was 0.404. Moreover, the “combination Emax” value in test [5] was 0.308; in [6] it was 0.413; in test [7], 0.307; in [8], 0.243; with NB7 (Neuroblastoma), 0.259; in test [9], 0.215. The “combination Emax” value in [10] was found to be 0.183; in [11], 0.242; with NH-12 (Neuroblastoma) it was 0.933; in test [12], 0.749; in [13], 0.905; with RPMI-7951 (Melanoma), 0.454. The “combination Emax” value came to 0.266 in test [14] and 0.424 in [15].
